# According to ChEMBL document CHEMBL4480381, “Origin and bioactivities of thiosulfinated FK228” (Medchemcomm, 2019):
# pIC50: −log10 of the molar value.
# Target: Histone deacetylase 4 (Homo sapiens, UniProt P56524)
# Experiment: Inhibition of human recombinant C-terminal GST-tagged HDAC4 (101 to 1084 residues) expressed in baculovirus infected Sf9 insect cells after 1 hr by HDAC-Glo1/2 luminescent assay
# Chain of Histone deacetylase 4 (P56524 whole entry, the tested form may be a part): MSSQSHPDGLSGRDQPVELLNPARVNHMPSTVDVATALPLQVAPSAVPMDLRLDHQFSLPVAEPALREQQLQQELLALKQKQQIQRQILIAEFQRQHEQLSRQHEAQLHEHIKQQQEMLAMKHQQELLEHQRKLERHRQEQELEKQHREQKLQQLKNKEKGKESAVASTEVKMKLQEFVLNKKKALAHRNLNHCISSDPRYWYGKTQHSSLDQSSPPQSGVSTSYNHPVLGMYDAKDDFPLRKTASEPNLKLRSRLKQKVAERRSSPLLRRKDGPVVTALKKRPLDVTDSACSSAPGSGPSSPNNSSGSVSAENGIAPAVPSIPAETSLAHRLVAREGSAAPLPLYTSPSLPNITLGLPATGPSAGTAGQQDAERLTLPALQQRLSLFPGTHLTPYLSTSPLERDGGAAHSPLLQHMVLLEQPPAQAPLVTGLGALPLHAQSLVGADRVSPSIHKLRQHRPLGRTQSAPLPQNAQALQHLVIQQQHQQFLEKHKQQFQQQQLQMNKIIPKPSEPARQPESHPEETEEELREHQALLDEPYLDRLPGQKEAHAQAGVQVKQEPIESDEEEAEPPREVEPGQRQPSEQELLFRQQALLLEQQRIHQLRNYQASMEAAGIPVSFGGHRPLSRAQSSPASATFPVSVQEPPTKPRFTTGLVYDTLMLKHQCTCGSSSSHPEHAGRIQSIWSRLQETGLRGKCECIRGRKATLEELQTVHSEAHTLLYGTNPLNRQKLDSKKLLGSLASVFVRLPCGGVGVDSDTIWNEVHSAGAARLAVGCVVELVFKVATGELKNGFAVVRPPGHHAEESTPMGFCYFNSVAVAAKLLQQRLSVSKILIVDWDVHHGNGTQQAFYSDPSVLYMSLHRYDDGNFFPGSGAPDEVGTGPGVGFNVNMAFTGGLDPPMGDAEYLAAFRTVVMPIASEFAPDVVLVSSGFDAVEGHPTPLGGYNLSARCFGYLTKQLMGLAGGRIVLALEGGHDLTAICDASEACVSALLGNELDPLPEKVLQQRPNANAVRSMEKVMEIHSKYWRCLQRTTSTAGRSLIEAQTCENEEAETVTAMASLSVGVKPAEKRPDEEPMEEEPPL
structure (smiles),measurement,value
C/C=C1\NC(=O)[C@H]2CSSCC/C=C/[C@H](CC(=O)N[C@H](C(C)C)C(=O)N2)OC(=O)[C@H](C(C)C)NC1=O [ROMIDEPSIN],pIC50,5.35
